Assay [1] has as its system platelet aggregation (using platelet rich plasma (PRP)). Description: Platelet Aggregation Assay (with esterase; ester prodrugs preincubated with porcine liver esterase). It is filed as cell-based. The note with it: human platelet rich plasma; preincubated with 100 IU/mL Porcine liver esterase 2 hours at 37° C.; 100 μM Adenosine Diphosphate. As to the method:
(§1) Platelet Aggregation Assay: Venous blood was obtained from the arm of a healthy human donor who was drug-free and aspirin-free for at least two weeks prior to blood collection. Blood was collected into 10 mL citrated Vacutainer tubes. The blood was centrifuged for 15 minutes at 150×g at room temperature, and platelet-rich plasma (PRP) was removed. The remaining blood was centrifuged for 15 minutes at 1500×g at room temperature, and platelet-poor plasma (PPP) was removed. Samples were assayed on a aggregometer (PAP-4 Platelet Aggregation Profiler), using PPP as the blank (100% transmittance). 200 μL of PRP was added to each micro test tube, and transmittance was set to 0%. 20 μL of various agonists (ADP, collagen, arachidonate, epinephrine, thrombin) were added to each tube, and the aggregation profiles were plotted (% transmittance versus time). The results are expressed as % inhibition of agonist-inducedplatelet aggregation. For the IC50 evaluation, the test compounds were added at various concentrations prior to the activation of the platelets.
Ester prodrugs were preincubated (10^-3 M F.C.) with 100 IU/mL Porcine liver esterase (Sigma Chemical Co., St. Louis, Mo., #E-3128) for 2 hours at 37° C. Aliquots are then diluted in 0.1 M Tris, pH 7.4, to the desired concentrations. Aliquots of 20 μl of the esterase pretreated prodrugs are added to 200 μl of human platelet rich plasma. Samples were placed in platelet profiler (aggregometer) for 8 minutes at 37° C., followed by the addition of 100 μM Adenosine Diphosphate, (Sigma Chemical Co., St. Louis, Mo., #A-6521), to induce platelet aggregation. Platelet aggregation was allowed to proceed for 5 minutes. Percent inhibition is calculated using percent aggregation in the presence of the test compound divided by percent aggregation of control, times 100. This value is subtracted from 100, yielding percent inhibition. Calculation of IC50 is performed on a Texas Instruments TI59 with an IC50 program.
(§2) Table A below sets forth the antiplatelet activity of representative compounds of the present invention. The indicated compounds were tested for their ability to inhibit platelet aggregation (using platelet rich plasma (PRP)). The IC50 value (the concentration of antagonist which inhibits platelet aggregation by 50% relative to a control lacking the antagonist) is shown. In Table 5 the IC50 values are expressed as: +++=IC50 of <10 μM (μM=micromolar).

The test system is the same in assay [2]. Put plainly: Platelet Aggregation Assay (without esterase). Type of assay: cell-based. The following applies: human platelet rich plasma. As to the method: as §1, §2

With `COC(=O)[C@H](CNC(=O)CC1CC(c2ccc(C(=N)N)cc2)N(Cc2ccccc2)C(=O)O1)NS(=O)(=O)c1cccc(C)c1` (stereo partly drawn) [Example 321, Cis-3-[[[4-[4-(aminoiminomethyl)phenyl]tetrahydro-3-benzyl-2-oxo-2H-1,3-oxazin-6-yl]acetyl]amino]-N-[(3-methylphenyl)sulfonyl]-L-alanine methyl ester monotrifluoroacetic acid], the 50% inhibitory concentration (IC50) in assay [1] is under 10 µM.
`Cc1noc(C)c1S(=O)(=O)N[C@@H](CNC(=O)C[C@@H]1C[C@H](c2ccc(C(=N)N)cc2)N(C)O1)C(=O)O` (relative stereo) [Example 38, Cis-3-[2-[2-methyl-3-[4-(aminoiminomethyl)phenyl]-isoxazolidin-5-yl]acetyl]amino-N-(3,5-dimethyloxazol-4-ylsulfonyl)-L-alanine monohydrogenchloride] gave an IC50 in assay [2] of under 10 µM.
In the case of `COC(=O)[C@H](CNC(=O)CC1CC(c2ccc(C(=N)N)cc2)N(c2ccccc2)O1)NS(=O)(=O)c1cccc(C)c1` (stereo partly drawn) [Example 70, Cis-3-[2-[2-phenyl-3-[4-(aminoiminomethyl)phenyl]-isoxazolidin-5-yl]acetyl]amino-N-(3-methylphenylsulfonyl)-L-alanine methyl ester monotrifluoroacetic acid], in assay [1], the IC50 was under 10 µM.
Consider `Cc1cccc(S(=O)(=O)N[C@@H](CNC(=O)CC2CC(c3ccc(C(=N)N)cc3)N(Cc3ccccc3)O2)C(=O)O)c1` (stereo partly drawn) [Example 17, Cis-3-[2-[2-benzyl-3-[4-(aminoiminomethyl)phenyl]-isoxazolidin-5-yl]acetyl]amino-N-(3-methylphenylsulfonyl)-L-alanine monohydrogenchloride], for which the 50% inhibitory concentration (IC50) in assay [2] was under 10 µM.
The same measure, in the same setting: to `CCCCOC(=O)N[C@@H](CNC(=O)CC1CC(c2ccc(C(=N)N)cc2)N(C)O1)C(=O)O` (stereo partly drawn) [Example 69, Cis-3-[2-[2-methyl-3-[4-(aminoiminomethyl)phenyl]-isoxazolidin-5-yl]acetyl]amino-N-n-butyloxycarbonyl-L-alanine monohydrogenchloride] belongs under 10 µM; to `Cc1cccc(S(=O)(=O)N[C@@H](CNC(=O)CC2CC(c3ccc(C(=N)N)cc3)N(c3ccccc3)O2)C(=O)O)c1` (stereo partly drawn) [Example 71, Cis-3-[2-[2-phenyl-[4-(aminoiminomethyl)phenyl]-isoxazolidin-5-yl]actetyl]amino-N-(3-methylphenylsulfonyl)-L-alanine monohydrogenchloride], under 10 µM; to `Cc1cccc(S(=O)(=O)N[C@@H](CNC(=O)CC2CC(c3ccc(C(=N)N)cc3)N(C(C)C)O2)C(=O)O)c1` (stereo partly drawn) [Example 29, Cis-3-[2-[2-isopropyl-3-[4-(aminoiminomethyl)phenyl]-isoxazolidin-5-yl]acetyl]amino-N-(3-methylphenylsulfonyl)-L-alanine monohydrogenchloride], under 10 µM.
Regarding `COC(=O)[C@H](CNC(=O)C[C@@H]1CC(c2ccc(C(=N)N)cc2)N(Cc2ccccc2)O1)NS(=O)(=O)c1cccc(C)c1` (relative stereo) [Example 16, Cis-3-[2-[2-benzyl-3-[4-(aminoiminomethyl)phenyl]-isoxazolidin-5-yl]acetyl]-N-(3-methylphenylsulfonyl)-L-alanine methyl ester monotrifluoroacetic acid], the half-inhibitory concentration (IC50) in assay [1] is under 10 µM.
With `Cc1ccccc1S(=O)(=O)N[C@@H](CNC(=O)CC1CC(c2ccc(C(=N)N)cc2)N(C)C(=O)O1)C(=O)O` (stereo partly drawn) [Example 328, Cis-3-[[[4-[4-(aminoiminomethyl)phenyl]tetrahydro-3-methyl-2-oxo-2H-1,3-oxazin-6-yl]acetyl]amino]-N-[(2-methylphenyl)sulfonyl]-L-alanine monohydrogenchloride], the IC50 in assay [2] is under 10 µM.
As for `COC(=O)[C@H](CNC(=O)CC1CC(c2ccc(C(=N)N)cc2)N(C)O1)NS(=O)(=O)c1cccc(C)c1` (stereo partly drawn) [Example 1, Cis-3-[2-[2-methyl-3-[4-(aminoiminomethyl)phenyl]-isoxazolidin-5-yl]-acetyl]amino-N-(3-methylphenylsulfonyl)-L-alanine Methyl Ester Monotrifluoroacetic Acid], in assay [1], the IC50 is under 10 µM.
`CCCCOC(=O)N[C@@H](CNC(=O)CC1CC(c2ccc(C(=N)N)cc2)N(C)C(=O)O1)C(=O)OC` (stereo partly drawn) [Example 355, Cis-3-[[[4-[4-(aminoiminomethyl)phenyl]tetrahydro-3-methyl-2-oxo-2H-1,3-oxazin-6-yl]acetyl]amino]-N-(n-butyloxycarbonyl)-L-alanine methyl ester monotrifluoroacetic acid]: the IC50 in assay [1] was under 10 µM.
On the same count and under the same terms, as for `COC(=O)[C@H](CNC(=O)CC1CC(c2ccc(C(=N)N)cc2)N(C)C(=O)O1)NS(=O)(=O)c1c(C)noc1C` (stereo partly drawn) [Example 335, Cis-3-[[[4-[4-(aminoiminomethyl)phenyl]tetrahydro-3-methyl-2-oxo-2H-1,3-oxazin-6-yl]acetyl]amino]-N-[(3,5dimethylisoxazol-4-yl)sulfonyl]-L-alanine methyl ester monotrifluoroacetic acid], the figure is under 10 µM.
As for `Cc1ccccc1S(=O)(=O)N[C@@H](CNC(=O)CC1CC(c2ccc(C(=N)N)cc2)N(C)O1)C(=O)O` (stereo partly drawn) [Example 33, Cis-3-[2-[2-methyl-3-[4-(aminoiminomethyl)phenyl]-isoxazolidin-5-yl]acetyl]amino-N-(2-methylphenylsulfonyl)-L-alanine monohydrogenchloride], the IC50 in assay [2] was under 10 µM.
With `COC(=O)[C@H](CNC(=O)CC1CC(c2ccc(C(=N)N)cc2)N(C)O1)NS(=O)(=O)c1cccc(C)c1` (stereo partly drawn) [Example 3, Trans-3-[2-[2-methyl-3-[4-(aminoiminomethyl)phenyl]-isoxazolidin-5-yl]acetyl]amino-N-(3-methylphenylsulfonyl)-L-alanine methyl ester monotrifluoroacetic acid], the IC50 in assay [1] was under 10 µM.
Consider `COC(=O)[C@H](CNC(=O)CC1CC(c2ccc(C(=N)N)cc2)N(C)C(=O)O1)NS(=O)(=O)c1cccc(C)c1` (stereo partly drawn) [Example 300, Cis-3-[[[4-[4-(aminoiminomethyl)phenyl]tetrahydro-3-methyl-2-oxo-2H-1,3-oxazin-6-yl]acetyl]amino]-N-[(3-methylphenyl)sulfonyl]-L-alanine methyl ester monotrifluoroacetic acid], for which the IC50 in assay [1] was under 10 µM.
Still for that read-out and setting: to `COC(=O)[C@H](CNC(=O)CC1CC(c2ccc(C(=N)N)cc2)N(C)C(=O)O1)NS(=O)(=O)c1ccccc1C` (stereo partly drawn) [Example 327, Cis-3-[[[4-[4-(aminoiminomethyl)phenyl]tetrahydro-3-methyl-2-oxo-2H-1,3-oxazin-6-yl]acetyl]amino]-N-[(2-methylphenyl)sulfonyl]-L-alanine methyl ester monotrifluoroacetic acid] belongs under 10 µM.
With `CCCCOC(=O)N[C@@H](CNC(=O)CC1CC(c2ccc(C(=N)N)cc2)N(C)O1)C(=O)OC` (stereo partly drawn) [Example 68, Cis-3-[2-[2-methyl-3-[4-(aminoiminomethyl)phenyl]-isoxazolidin-5-yl]acetyl]amino-N-n-butyloxycarbonyl-L-alanine methyl ester monotrifluoroacetic acid], in assay [1], the IC50 is under 10 µM.
Turning to `COC(=O)[C@H](CNC(=O)C[C@@H]1C[C@H](c2ccc(C(=N)N)cc2)N(C)O1)NS(=O)(=O)c1c(C)noc1C` (relative stereo) [Example 37, Cis-3-[2-[2-methyl-3-[4-(aminoiminomethyl)phenyl]-isoxazolidin-5-yl]acetyl]amino-N-(3,5-dimethyloxazol-4-ylsulfonyl)-L-alanine methyl ester monotrifluoroacetic], the half-inhibitory concentration (IC50) in assay [1] was under 10 µM.
With `Cc1cccc(S(=O)(=O)N[C@@H](CNC(=O)CC2CC(c3ccc(C(=N)N)cc3)N(C)O2)C(=O)O)c1` (stereo partly drawn) [Example 2, Cis-3-[2-[2-methyl-3-[4-(aminoiminomethyl)phenyl]-isoxazolidin-5-yl]acetyl]amino-N-(3-methylphenylsulfonyl)-L-alanine monohydrogenchloride], the IC50 in assay [2] was under 10 µM.
As for `COC(=O)[C@H](CNC(=O)CC1CC(c2ccc(C(=N)N)cc2)N(C(C)C)O1)NS(=O)(=O)c1cccc(C)c1` (stereo partly drawn) [Example 28, Cis-3-[2-[2-isopropyl-3-[4-(aminoiminomethyl)phenyl]-isoxazolidin-5-yl]acetyl]amino-N-(3-methylphenylsulfonyl)-L-alanine methyl ester monotrifluoroacetic acid], the IC50 in assay [1] was under 10 µM.
On the same count and under the same terms, as for `COC(=O)[C@H](CNC(=O)CC1CC(c2ccc(C(=N)N)cc2)N(C)O1)NS(=O)(=O)c1ccccc1C` (stereo partly drawn) [Example 32, Cis-3-[2-[2-methyl-3-[4-(aminoiminomethyl)phenyl]-isoxazolidin-5-yl]acetyl]amino-N-(2-methylphenylsulfonyl)-L-alanine methyl ester monotrifluoroacetic acid], the figure is under 10 µM.
